The results in this text go back to patent US9974760B2, “Compositions and methods for treating cancer” (Chemo-Enhanced LLC, priority 2011, dated 2018).

In one assay the test system is Panc-1 cells. Put plainly: Cell death in Panc-1 pancreatic cancer cells. The class given is cell-based. The method, then:
FIGS. 3A-3H show synergistic anti-tumor effects of C6-ceramide and gemcitabine in vivo and in vitro. SCID/Beige/Taconic nude male mice (22-25 g; 6-8 weeks old) were ear tagged and randomized into 4 different groups (Control, Ceramide, gemcitabine, Ceramide+gemcitabine) combining 5 mice each prior to inoculation subcutaneous (s.c.) with 2×10^6 L3.6 cells in a 0.1 ml volume into the internal surface of the right thigh. Treatment was started 4 days after L3.6 cell injection with thrice weekly (3×/wk) intraperitoneal (i.p.) injections of gemcitabine (two doses: 5.0 and 10.0 mg/ml) with or without C6-ceramide (10 mg/ml) for 2 weeks. Mouse survival (FIGS. 3A, 3B, and 3E) and tumor volume (in cm^3; FIGS. 3C and 3D) were recorded (FIG. 3E). […] Mitomycin C was always present in the media to prevent cell proliferation from occurring. The data represent the mean±SD of at least triplicate experiments. *P<0.05 versus group without C6-ceramide presents. The experiments were repeated at least three times and similar results were observed.
Cell viability was measured by the 3-[4m5-dimethylthylthiazol-2-y]-2.5 diphenyltetrazolium bromide (MTT) method, as described in Cao et al. (2009) Sci. Signal, 2:RA17. Briefly, the cells were collected and seeded in 96-well plate at a density of 2×10^5 cells/cm^2. Different seeding densities were optimized at the beginning of the experiments. […] The medium was subsequently aspirated from each well and 150 ul of DMSO (Sigma, St. Louis, Mo.) was added to dissolve formazan crystals and the absorbance of each well was obtained using a Dynatech MR5000 plate reader at a test wavelength of 490 nm with a reference wavelength of 630 nm.
The possible combination effect of C6-ceramide on gemcitabine-induced cytotoxicity (in vitro) and regression (in vivo) of the L3.6 pancreatic cancer cell was also tested according to the methods described in Examples 2 and 3. […] A synergistic anti-tumor effect of gemcitabine and C6-ceramide in multiple pancreatic cancer cells in vitro was also determined.

The subject of assay [1] is L3.6 pancreatic cancer cells. Put plainly: Cell viability / cell death (MTT) in L3.6 pancreatic cancer cells. The class given is cell-based, human. The note with it: gemcitabine 1.5 μg/ml.
The next assay deals with Gab1. Put plainly: Gab1 activation in wildtype and Gab1 knockout MEFs. The note with it: wildtype vs Gab1 knockout MEFs. The format is cell-based. From the text: One of the most studied scaffold proteins for AKT activation is Gab1. Physical association between p85 and Gab1 is crucial in mediating the PI3K/AKT signaling pathway induced by a variety of stimuli. […] It is believed that that Gab1 is a key adaptor for taxol and gemcitabine induced PI3K/AKT/mTOR activation and chemoresistance response. To confirm this rationale, wildtype and Gab1 knockout MEFs and Gab1 siRNA can be used to test taxol and gemcitabine induced PI3K/AKT/mTOR and cell death. Interaction between Gab1 and p85 after Taxol and Gemcitabine treatment can also be tested in L3.6 cells.

Take `CCCCCCCCCCCCC/C=C/[C@@H](O)[C@H](CO)NC(=O)CCCCC` [C6-ceramide, N-hexanoyl-D-sphingosine]: in the assay with Panc-1 cells (PANC-1, activating KRAS mutation), the sensitization to cetuximab result is recorded as “markedly sensitized”. The cancer cell death result in the assay with Panc-1 cells (Panc-1, gemcitabine 1.5 μg/ml) is listed as “moderate effect”; in assay [1], “moderate effect”.

`CC(=O)O[C@H]1C(=O)[C@@]2(C)[C@H]([C@H](OC(=O)c3ccccc3)[C@]3(O)C[C@H](OC(=O)[C@H](O)[C@@H](NC(=O)c4ccccc4)c4ccccc4)C(C)=C1C3(C)C)[C@]1(OC(C)=O)CO[C@@H]1C[C@@H]2O` [paclitaxel]: in the assay on Gab1, the Gab1 activation entry is reported as “induces Gab1 activation in wildtype but not Gab1 knockout MEFs”.
